Format in all cases: cell-based
Assay [1] concerns TNFα release from THP-1 cells. The assay is described as follows: Primary screen (Example 1a): LPS-stimulated TNFα release from THP-1 cells, HTRF. The following applies: Homo sapiens, 100 ng/mL LPS, 3 h, normalised to 50 μM Batimastat, read-out: Primary Screen XC50 TNFα. As to the method: (§1) Two separate screens to identify novel small molecule inhibitors of iRhom2/ADAM17 activity were developed. […] Therefore, the primary screen for small molecule inhibitors of iRhom2/ADAM17 was a screen for inhibitors that blocked the release of TNFα from LPS-stimulated THP-1 human myeloid cells, a process that depends on iRhom2 and ADAM17. Since the release of TNFα from THP-1 cells can be blocked at many stages of the LPS/TLR4/iRhom2/ADAM17 pathway, a secondary screen was performed for another iRhom2/ADAM17 selective substrate, Kit-ligand 2 (KL-2) (Maretzky T et al. (July 2013), “iRhom2 controls the substrate selectivity of stimulated ADAM17-dependent ectodomain shedding”, PNAS 110(28): 11433-11438) in a different human cell type, human embryonic kidney cells (HEK 293).
THP-1 cells were plated in 384 or 1,536 wells and transferred on the ultra-high throughput screening (uHTS) platform Mark III, and TNFα shedding was initiated by LPS stimulation of THP-1 cells. The extent of released TNFα was detected with the corresponding HTRF antibodies labeled with europium cryptate (donor) and d2 (acceptor). The HTRF signal was generated by proximity of europium cryptate and d2. All detection reagents were purchased from Cisbio. TNFα detection was performed according to the manufacturer's protocol (Product Insert for Cisbio TNFα (h) Kit Part #62HTNFAPEG & 62HTNFAPEH;
7.5 nL compound and controls in DMSO [10 μM in assay; 0.25% DMSO in 3 [μL Assay] were dissolved in 2 μL cell suspension [2.4E6/mL; 4800 cells/well; culture w/o PenStrep], pre-incubated at 37° C., 5% CO2, for 15 min with 1 μL LPS [100 ng/mL in 3 μL assay]. The cells were incubated at 37° C., 5% CO2, for 3 h with 2 μL of the HTRF-mix [1:300 f.c.]. After an incubation at room temperature for 2 h or longer, the HTRF readout was performed. Then data evaluation for normalization against the 50 μM Batimastat control (=100% […]) was applied. As an additional control, 300 nM Batimastat was used to monitor performance of cells and assay sensitivity over time.

Assay [2] deals with KL2 release from HEK-293 cells. The assay is described as follows: Secondary screen (Example 3a): PMA-stimulated KL2 release from HEK-293 cells, AP readout. The following applies: Homo sapiens, HEK293, HEK-293 cells expressing KL2-AP, PMA 500 ng/mL, 2 h, read-out: Secondary Screen XC50 KL2. Here is the method:
as §1
(§2) First, expression plasmids for alkaline phosphatase (AP)-fused KL2 and TGFα were designed and generated through gene synthesis followed by subcloning into the pcDNA3.1(+)/Hygro expression vector. […] Subsequently, DNA amplifications were performed to obtain sufficient amounts of the expression vectors. The quality of DNA and gene sequences were confirmed through restriction digest and Sanger sequencing. In parallel, cell culture of THP-1 and HEK-293 cells was initiated. Master and working cell banks were prepared. Both cell lines were scaled up and transfected with the respective constructs by electroporation. During cell culturing, cell density and viability were monitored to ensure optimal conditions for the transfections. After PMA stimulation, AP-coupled KL2 or TGFα were detected by measurement of AP activity in the supernatant. […] In contrast, THP-1 cells turned out to be not a suitable transfection host resulting in a loss of cell viability after transfection. The decision was made to proceed with HEK-293 for both selectivity assays and to establish polyclonal cell lines stably expressing AP-coupled KL2 or TGFα.
(§3) After electroporation, cells were further cultured in presence of selection antibiotics, hygromycin B, to generate stably transfected polyclonal cell pools. For both assays, KL2 and TGFα shedding, the respective selected pool turned out to be suitable. Final assay conditions were determined for the selected pools. For all experiments, batimastat (30 μM) was used as positive control for full inhibition of KL2 or TGFα shedding.
(§4) 60 μL of cells (40,000/well) were added to a sterile 384-well plate. After incubation overnight at 37° C. (5% CO2), 50 μL medium were removed and 20 μL of prediluted compounds were added to the cells. After incubation for 15 min, 20 μL of PMA (500 ng/mL final conc.) were added. The cells were incubated for 2 h at 37° C. (5% CO2). Then, 20 μL of the supernatant was transferred to a fresh plate and 20 μL of pNPP (5 mM final conc.) was added. AP reaction was performed for 1 h at RT. The reaction was stopped by addition of 20 μL of NaOH (1 M final conc.) and the absorbance of pNP was measured at 405 nm.

The test system of assay [3] is TGFα release from HEK-293 cells. The assay is described as follows: Counter screen (Example 4a): PMA-stimulated TGFα release from HEK-293 cells, AP readout. The following applies: Homo sapiens, HEK293, HEK-293 cells expressing TGFα-AP, PMA 100 ng/mL, 2 h, read-out: Counter Screen XC50 TGFα. As to the method: A tertiary counterscreen was also performed to monitor the release of TGFα, which is a substrate of iRhom1/ADAM17 and iRhom2/ADAM17, so its release should not be blocked by an iRhom2-selective inhibitor (Maretzky T et al. (July 2013), “iRhom2 controls the substrate selectivity of stimulated ADAM17-dependent ectodomain shedding”, PNAS 110(28): 11433-11438; and Li X et al. (May 2015), “iRhoms 1 and 2 are essential upstream regulators of ADAM17-dependent EGFR signaling”, PNAS 112(19): 6080-6085).
as §2, §3
as §4, with “of cells (20,000/well) were added” for “of cells (40,000/well) were added”, “of PMA (100 ng/mL final” for “of PMA (500 ng/mL final”, “was added. The AP reaction” for “was added. AP reaction”
For orientation: A counterscreen serves to expose hits that act by an unwanted route or on another target.

pIC50: −log10 of the molar value.

For `Cc1ccccc1C(=O)N1CCC(Cc2ccccc2)CC1` [Compound 1], the pIC50 is 4.99 in assay [1], 5.59 in assay [2] and under 3.89 in assay [3].

As to `Fc1ccc(Nc2nc3nonc3nc2Nc2ccc(F)cc2F)c(F)c1` [Compound 26], the pIC50 is 5.85 in assay [1], 4.65 in assay [2] and 4.15 in assay [3].

For the compound `c1ccc(-c2ncn(CCCc3cccnc3)c2-c2ccncc2)cc1` [Compound 20], the pIC50 in assay [1] was over 6.10; in assay [2], under 3.89; in assay [3] it was under 3.89.

In the case of `O=C(c1c(F)cccc1F)N1CCN(Cc2ccc(Cl)s2)CC1` [Compound 7], the pIC50 in assay [1] is 4.85; in assay [2], under 3.89; in assay [3] it was under 3.89.

Take `CCC(C)NC(=O)c1cc(C(=O)c2ccccc2C)c[nH]1` (stereo not drawn) [Compound 34]: the values for the pIC50 in assay [1], in assay [2] and in assay [3] were 4.99, under 3.89 and under 3.89, respectively.

As for `C/C(=C\c1c(C)[nH]c2ccccc12)[N+](=O)[O-]` [Compound 30], the pIC50 in assay [1] is 4.61; in assay [2], 4.92; in assay [3] it was under 3.89.

In the case of `CC(C)c1nccc(-c2c(-c3ccccc3)ncn2CCc2c[nH]cn2)n1` [Compound 37], the pIC50 is 5.30 in assay [1], under 3.89 in assay [2] and under 3.89 in assay [3].

Take `O=C(NN1CCN(Cc2ccccc2)CC1)C12CC3CC(CC(C3)C1)C2` [Compound 12]: the pIC50 in assay [1] is 5.05; in assay [2] it was under 3.89; in assay [3], under 3.89.

Consider `COc1cccc(OC)c1C(=O)N1CCN(Cc2cccc(Br)c2)CC1` [Compound 11], for which the pIC50 in assay [1] was 4.61; in assay [2], under 3.89; in assay [3] it was under 3.89.

With `CC(=O)c1cccc(Nc2nc(NCC3CCCO3)c3ccccc3n2)c1` (stereo not drawn) [Compound 25], the pIC50 in assay [1] was 5.25; in assay [2], 4.26; in assay [3], under 3.89.

`COc1ccc(Nc2nc(NCCCO)c3ccccc3n2)cc1` [Compound 24]: the pIC50 is 5.96 in assay [1], under 3.89 in assay [2] and under 3.89 in assay [3].

Consider `CCCn1c(=O)nc(N)c2c(-c3ccc(OC)cc3)csc21` [Compound 28], for which the pIC50 in assay [1] is 5.77; in assay [2] it was under 3.89; in assay [3], under 3.89.

These data come from US20240390355A1, “IRHOM2 INHIBITORS AND USES THEREOF” (NEW YORK SOCIETY FOR THE RELIEF OF THE RUPTURED AND …, priority 2021, published 2024).
